From the NIST ThermoML archive (doi:10.1021/je060271a)
Values joined by “and” are separate entries in the source; they are usually repeats but may differ in a detail not shown here. Equal values may be shown once. Numbers after ± are expanded uncertainties.

Conditions: Liquid, Vibrating tube method

CCCCCCC(=O)OCC(COC(=O)CCCCCC)(COC(=O)CCCCCC)COC(=O)CCCCCC [pentaerythritol tetraheptanoate]
Conditions | mass density
283.15 K, 2785.2 kPa | 987.5 ± 1.2 kg/m3
283.15 K, 4763 kPa | 988.5 ± 1.2 kg/m3
283.15 K, 4768.7 kPa | 988.7 ± 1.2 kg/m3
283.15 K, 5143.5 kPa | 988.8 ± 1.2 kg/m3
283.15 K, 5150.3 kPa | 988.9 ± 1.2 kg/m3
283.15 K, 5157.6 kPa | 988.7 ± 1.2 kg/m3
283.15 K, 5164.1 kPa | 988.8 ± 1.2 kg/m3
283.15 K, 5170.9 kPa | 988.9 ± 1.2 kg/m3
283.15 K, 5178.5 kPa | 988.9 ± 1.2 kg/m3
283.15 K, 5185.2 kPa | 988.8 ± 1.2 kg/m3
283.15 K, 5558.2 kPa | 989.1 ± 1.2 kg/m3
283.15 K, 5573.4 kPa | 989.1 ± 1.2 kg/m3
283.15 K, 5748.5 kPa | 989.3 ± 1.2 kg/m3
283.15 K, 5758 kPa | 989.2 ± 1.2 kg/m3
283.15 K, 5766.1 kPa | 989.3 ± 1.2 kg/m3
283.15 K, 9627.4 kPa | 991.5 ± 1.2 kg/m3
283.15 K, 9754 kPa | 991.6 ± 1.2 kg/m3
283.15 K, 9827.4 kPa | 991.6 ± 1.2 kg/m3
283.15 K, 15376 kPa | 994.5 ± 1.2 kg/m3
283.15 K, 15402 kPa | 994.5 ± 1.2 kg/m3
283.15 K, 15424 kPa | 994.5 ± 1.2 kg/m3
283.15 K, 15447 kPa | 994.5 ± 1.2 kg/m3
283.15 K, 15473 kPa | 994.5 ± 1.2 kg/m3
283.15 K, 15496 kPa | 994.5 ± 1.2 kg/m3
283.15 K, 15518 kPa | 994.4 ± 1.2 kg/m3
283.15 K, 15545 kPa | 994.6 ± 1.2 kg/m3
283.15 K, 16561 kPa | 995.2 ± 1.2 kg/m3
283.15 K, 16643 kPa | 995.1 ± 1.2 kg/m3
283.15 K, 16700 kPa | 995.2 ± 1.2 kg/m3
283.15 K, 17302 kPa | 995.5 ± 1.2 kg/m3
283.15 K, 17330 kPa | 995.5 ± 1.2 kg/m3
283.15 K, 17392 kPa | 995.5 ± 1.2 kg/m3
283.15 K, 17420 kPa | 995.6 ± 1.2 kg/m3
283.15 K, 19724 kPa | 996.7 ± 1.2 kg/m3
283.15 K, 24690 kPa | 999.4 ± 1.2 kg/m3
283.15 K, 24805 kPa | 999.3 ± 1.2 kg/m3
283.15 K, 25965 kPa | 999.9 ± 1.2 kg/m3
283.15 K, 26012 kPa | 1000.1 ± 1.2 kg/m3
283.15 K, 26052 kPa | 1000.1 ± 1.2 kg/m3
283.15 K, 26093 kPa | 1000.1 ± 1.2 kg/m3
283.15 K, 26133 kPa | 1000.1 ± 1.2 kg/m3
283.15 K, 26183 kPa | 1000.1 ± 1.2 kg/m3
283.15 K, 26224 kPa | 1000.1 ± 1.2 kg/m3
283.15 K, 26317 kPa | 1000.1 ± 1.2 kg/m3
283.15 K, 26361 kPa | 1000.1 ± 1.2 kg/m3
283.15 K, 26458 kPa | 1000.2 ± 1.2 kg/m3
283.15 K, 26749 kPa | 1000.4 ± 1.2 kg/m3
283.15 K, 26807 kPa | 1000.4 ± 1.2 kg/m3
283.15 K, 26833 kPa | 1000.4 ± 1.2 kg/m3
283.15 K, 26860 kPa | 1000.5 ± 1.2 kg/m3
283.15 K, 26892 kPa | 1000.5 ± 1.2 kg/m3
283.15 K, 26918 kPa | 1000.5 ± 1.2 kg/m3
283.15 K, 26978 kPa | 1000.5 ± 1.2 kg/m3
283.15 K, 27117 kPa | 1000.7 ± 1.2 kg/m3
283.15 K, 27150 kPa | 1000.5 ± 1.2 kg/m3
283.15 K, 27176 kPa | 1000.7 ± 1.2 kg/m3
283.15 K, 27209 kPa | 1000.6 ± 1.2 kg/m3
283.15 K, 27237 kPa | 1000.6 ± 1.2 kg/m3
283.15 K, 27264 kPa | 1000.6 ± 1.2 kg/m3
283.15 K, 27324 kPa | 1000.7 ± 1.2 kg/m3
283.15 K, 27352 kPa | 1000.7 ± 1.2 kg/m3
283.15 K, 27599 kPa | 1000.8 ± 1.2 kg/m3
283.15 K, 27618 kPa | 1000.8 ± 1.2 kg/m3
283.15 K, 27642 kPa | 1000.9 ± 1.2 kg/m3
283.15 K, 27661 kPa | 1000.8 ± 1.2 kg/m3
283.15 K, 27681 kPa | 1000.9 ± 1.2 kg/m3
283.15 K, 27896 kPa | 1001.1 ± 1.2 kg/m3
283.15 K, 27916 kPa | 1001.1 ± 1.2 kg/m3
283.15 K, 27936 kPa | 1000.9 ± 1.2 kg/m3
283.15 K, 27956 kPa | 1001 ± 1.2 kg/m3
283.15 K, 28022 kPa | 1001 ± 1.2 kg/m3
283.15 K, 30230 kPa | 1002.1 ± 1.2 kg/m3
283.15 K, 33971 kPa | 1003.9 ± 1.2 kg/m3
283.15 K, 34009 kPa | 1004.1 ± 1.2 kg/m3
283.15 K, 34041 kPa | 1003.9 ± 1.2 kg/m3
283.15 K, 34067 kPa | 1004 ± 1.2 kg/m3
283.15 K, 34100 kPa | 1004.1 ± 1.2 kg/m3
283.15 K, 34146 kPa | 1004.3 ± 1.2 kg/m3
283.15 K, 34179 kPa | 1004 ± 1.2 kg/m3
283.15 K, 34214 kPa | 1004.2 ± 1.2 kg/m3
283.15 K, 34255 kPa | 1004.1 ± 1.2 kg/m3
283.15 K, 34291 kPa | 1004.1 ± 1.2 kg/m3
283.15 K, 34334 kPa | 1004.2 ± 1.2 kg/m3 and 1004.1 ± 1.2 kg/m3
283.15 K, 34346 kPa | 1004.1 ± 1.2 kg/m3
283.15 K, 34372 kPa | 1004.2 ± 1.2 kg/m3
283.15 K, 34412 kPa | 1004.3 ± 1.2 kg/m3
283.15 K, 34450 kPa | 1004.2 ± 1.2 kg/m3
283.15 K, 34481 kPa | 1004.2 ± 1.2 kg/m3
283.15 K, 34492 kPa | 1004.2 ± 1.2 kg/m3
283.15 K, 34503 kPa | 1004.4 ± 1.2 kg/m3
283.15 K, 34516 kPa | 1004.2 ± 1.2 kg/m3
283.15 K, 34528 kPa | 1004.3 ± 1.2 kg/m3
283.15 K, 34542 kPa | 1004.4 ± 1.2 kg/m3
283.15 K, 34553 kPa | 1004.4 ± 1.2 kg/m3
283.15 K, 34565 kPa | 1004.4 ± 1.2 kg/m3
283.15 K, 34574 kPa | 1004.3 ± 1.2 kg/m3
283.15 K, 34579 kPa | 1004.3 ± 1.2 kg/m3
283.15 K, 34594 kPa | 1004.5 ± 1.2 kg/m3
283.15 K, 34601 kPa | 1004.3 ± 1.2 kg/m3
283.15 K, 34603 kPa | 1004.2 ± 1.2 kg/m3
283.15 K, 34606 kPa | 1004.3 ± 1.2 kg/m3
303.14 K, 99.6 kPa | 970.8 ± 1.2 kg/m3
303.14 K, 99.8 kPa | 970.7 ± 1.2 kg/m3 and 970.8 ± 1.2 kg/m3 and 970.9 ± 1.2 kg/m3
303.14 K, 99.9 kPa | 970.8 ± 1.2 kg/m3 and 970.9 ± 1.2 kg/m3 and 970.7 ± 1.2 kg/m3
303.14 K, 100.1 kPa | 970.7 ± 1.2 kg/m3 and 970.6 ± 1.2 kg/m3
303.14 K, 100.3 kPa | 970.7 ± 1.2 kg/m3
303.14 K, 100.6 kPa | 970.8 ± 1.2 kg/m3
303.14 K, 101.7 kPa | 970.7 ± 1.2 kg/m3
303.14 K, 103.8 kPa | 970.7 ± 1.2 kg/m3
303.14 K, 107.4 kPa | 970.8 ± 1.2 kg/m3
303.14 K, 118.5 kPa | 970.8 ± 1.2 kg/m3
303.14 K, 136.8 kPa | 970.7 ± 1.2 kg/m3
